# ± gives the standard deviation of the averaged measurements.
# Legend:
# Assay in all cases: level (log10 ratio to DMSO vehicle control); higher = higher biomarker level / cell amount than vehicle control
# [1] = compound: C=CC(=O)OCC(F)(F)C(F)(F)C(F)(F)COC(=O)C=C [1H,1H,5H,5H-Perfluoro-1,5-pentanediol diacrylate]; details: 6700 nM; in DMSO
# Procedure: (§1)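 BioMAP Diversity Plus panel of 12 human primary cell co-culture systems (3C, 4H, LPS, SAg, BT, BF4T, BE3C, CASM3C, HDF3CGF, KF3CT, MyoF, Mphg). Compounds were added 1 h before stimulation and left for 24 h (MyoF 48 h; BT 72 h for soluble read-outs or 6 d for IgG). Biomarkers were read by ELISA, cytotoxicity by SRB, PBMC viability and proliferation by Alamar Blue. Each well value was divided by the mean of 8 DMSO control wells on the same plate and log10 transformed; duplicate blinded samples were tested at 4 concentrations.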
# Nonafluoropentanamide = compound: NC(=O)C(F)(F)C(F)(F)C(F)(F)C(F)(F)F [Nonafluoropentanamide]; details: in DMSO
# Procedure: as §1
# Octafluoroadipamide = compound: NC(=O)C(F)(F)C(F)(F)C(F)(F)C(F)(F)C(N)=O [Octafluoroadipamide]; details: in DMSO
# Procedure: as §1
# [2] = compound: FC(F)(F)C(F)(F)C(F)(F)CC1CO1 [1H,1H-Heptafluorobutyl epoxide]; details: in DMSO
# Procedure: as §1
# [3] = compound: COC(=O)C(F)(F)C(F)(F)OC(F)(C(F)(F)F)C(F)(F)OC(F)=C(F)F [Methyl perfluoro(3-(1-ethenyloxypropan-2-yloxy)propanoate)]; details: in DMSO
# Procedure: as §1
# [4] = compound: C=C(C)C(=O)OCCC(F)(F)C(F)(F)C(F)(F)C(F)(F)C(F)(F)C(F)(F)F [6:2 Fluorotelomer methacrylate]; details: in DMSO
# Procedure: as §1
# [5] = compound: FC(F)(F)C(F)(F)C(F)(F)C(F)(F)C(F)(F)C(F)(F)CC1CO1 [3-(Perfluorohexyl)-1,2-epoxypropane]; details: in DMSO
# Procedure: as §1
# [6] = compound: NS(=O)(=O)C(F)(F)C(F)(F)C(F)(F)C(F)(F)C(F)(F)C(F)(F)F [Perfluorohexanesulfonamide]; details: in DMSO
# Procedure: as §1
# [7] = compound: NC(=O)C(F)(F)C(F)(F)C(F)(F)C(F)F; details: in DMSO
# Procedure: as §1
# [8] = compound: O=S(=O)(O)CCC(F)(F)C(F)(F)C(F)(F)C(F)(F)C(F)(F)C(F)(F)F [6:2 Fluorotelomer sulfonic acid]; details: in DMSO
# Procedure: as §1
# [9] = compound: O=S(=O)(O)C(F)(F)C(F)(F)C(F)(F)C(F)(F)C(F)(F)C(F)(F)C(F)(F)C(F)(F)C(F)(F)C(F)(F)F [Sodium perfluorodecanesulfonate]; details: in DMSO
# Procedure: as §1
# [10] = compound: FC(F)(F)C(F)(F)CNCC(F)(F)C(F)(F)F [Bis(1H,1H-perfluoropropyl)amine]; details: in DMSO
# Procedure: as §1
# Heptafluorobutyl iodide = compound: FC(F)(F)C(F)(F)C(F)(F)CI [Heptafluorobutyl iodide]; details: in DMSO
# Procedure: as §1
# [11] = compound: O=S(=O)(Cl)C(F)(F)C(F)(F)C(F)(F)C(F)(F)C(F)(F)C(F)(F)C(F)(F)C(F)(F)F [Perfluoro-1-octanesulfonyl chloride]; details: in DMSO
# Procedure: as §1
# [12] = compound: O=C(O)C(F)(F)C(F)(F)C(F)(F)C(F)(F)C(F)(F)C(F)(F)C(F)(F)C(F)(F)C(F)(F)C(F)F [11-H-Perfluoroundecanoic acid]; details: in DMSO
# Procedure: as §1
# [13] = compound: O=C(O)C=CC(F)(C(F)(F)F)C(F)(F)F [3-(Perfluoroisopropyl)-2-propenoic acid]; details: in DMSO
# Procedure: as §1
# Hexafluoroamylene glycol = compound: OCC(F)(F)C(F)(F)C(F)(F)CO [Hexafluoroamylene glycol]; details: in DMSO
# Procedure: as §1
# [14] = compound: O=S(=O)(F)C(F)(F)C(F)(F)C(F)(F)C(F)(F)C(F)(F)C(F)(F)C(F)(F)C(F)(F)F [Perfluorooctanesulfonyl fluoride]; details: in DMSO
# Procedure: as §1
# [15] = compound: FC(F)(F)C(F)(F)C(F)(F)C(F)(F)C(F)(F)C(F)(F)C(F)(F)I [1-Iodopentadecafluoroheptane]; details: in DMSO
# Procedure: as §1
test system,measurement,setting,value
MyoF:Collagen III,level (log10),[1],-0.027 ± 0.013
same,level (log10),Nonafluoropentanamide; 6700 nM,-0.029 ± 0.021
same,level (log10),Nonafluoropentanamide; 20000 nM,-0.0335 ± 0.036
same,level (log10),Nonafluoropentanamide; 60000 nM,-0.0145 ± 0.0092
same,level (log10),Octafluoroadipamide; 6700 nM,0.0035 ± 0.011
same,level (log10),Octafluoroadipamide; 20000 nM,0.009 ± 0.0057
same,level (log10),Octafluoroadipamide; 60000 nM,-0.0075 ± 0.025
same,level (log10),[2]; 6700 nM,-0.007 ± 0.011
same,level (log10),[2]; 20000 nM,-0.012 ± 0.011
same,level (log10),[2]; 60000 nM,-0.012 ± 0.0042
same,level (log10),[3]; 6700 nM,-0.0145 ± 0.013
same,level (log10),[3]; 20000 nM,-0.005 ± 0.0071
same,level (log10),[4]; 6700 nM,0.008 ± 0.027
same,level (log10),[4]; 20000 nM,0.012 ± 0.0057
same,level (log10),[4]; 60000 nM,0.006 ± 0.017
same,level (log10),[5]; 6700 nM,0.007 ± 0.0028
same,level (log10),[5]; 20000 nM,0.003 ± 0.011
same,level (log10),[5]; 60000 nM,0.0065 ± 0.011
same,level (log10),[6]; 6700 nM,0.009 ± 0.0071
same,level (log10),[6]; 20000 nM,0.008 ± 0.0014
same,level (log10),[6]; 60000 nM,0.0025 ± 0.0035
same,level (log10),[7]; 6700 nM,0.003
same,level (log10),[7]; 20000 nM,0.0135 ± 0.00071
same,level (log10),[7]; 60000 nM,-0.0065 ± 0.035
same,level (log10),[8]; 6700 nM,-0.011 ± 0.013
same,level (log10),[8]; 20000 nM,-0.02 ± 0.017
same,level (log10),[8]; 60000 nM,-0.0055 ± 0.015
same,level (log10),[9]; 1500 nM,0.0125 ± 0.037
same,level (log10),[9]; 4400 nM,0.02 ± 0.0057
same,level (log10),[9]; 13000 nM,-0.0005 ± 0.0035
same,level (log10),[9]; 40000 nM,-0.0455 ± 0.0021
same,level (log10),[10]; 6700 nM,0.003 ± 0.016
same,level (log10),[10]; 20000 nM,0.0025 ± 0.005
same,level (log10),[10]; 60000 nM,-0.0035 ± 0.0092
same,level (log10),Heptafluorobutyl iodide; 6700 nM,-0.0095 ± 0.019
same,level (log10),Heptafluorobutyl iodide; 20000 nM,-0.033 ± 0.013
same,level (log10),Heptafluorobutyl iodide; 60000 nM,-0.0205 ± 0.033
same,level (log10),[11]; 6700 nM,-0.0155 ± 0.0035
same,level (log10),[11]; 20000 nM,-0.0315 ± 0.00071
same,level (log10),[11]; 60000 nM,-0.164 ± 0.035
same,level (log10),[12]; 6700 nM,-0.0405 ± 0.005
same,level (log10),[12]; 20000 nM,-0.475 ± 0.079
same,level (log10),[13]; 6700 nM,-0.0055 ± 0.022
same,level (log10),[13]; 20000 nM,0.003 ± 0.0071
same,level (log10),[13]; 60000 nM,0.0075 ± 0.005
same,level (log10),Hexafluoroamylene glycol; 6700 nM,-0.007 ± 0.017
same,level (log10),Hexafluoroamylene glycol; 20000 nM,-0.005 ± 0.018
same,level (log10),Hexafluoroamylene glycol; 60000 nM,0.005 ± 0.017
same,level (log10),[14]; 6700 nM,0.0095 ± 0.018
same,level (log10),[14]; 20000 nM,-0.0005 ± 0.03
same,level (log10),[14]; 60000 nM,0.009 ± 0.0099
same,level (log10),[15]; 6700 nM,-0.0365 ± 0.005
same,level (log10),[15]; 20000 nM,-0.311 ± 0.093

# Reference: the supplement of paper PMC10331698
